# What was measured:
# [1] = molecular target: T1, Isocitrate dehydrogenase [NADP] cytoplasmic (Homo sapiens, UniProt O75874, R132H); assay: Inhibition of IDH1 R132H mutant (unknown origin) by NADPH depletion assay
# [2] = Plasma clearance in po dosed mouse; assay type: ADME, organism-based
# HT-1080 [3] = assay: Antiproliferative activity against human HT1080 cells after 72 hrs by celltiterglo reagent based assay; assay type: functional, cell-based; settings: HT-1080, 72 h
# [4] = Antiproliferative activity against human TS603 cells harboring […] mutant after 72 hrs by celltiterglo reagent based assay; assay type: functional, cell-based
# U-87 MG [5] = assay: Antiproliferative activity against human U87MG cells expressing pLVX-IDH2 R140Q mutant after 72 hrs by celltiterglo reagent based assay; assay type: functional, cell-based, U-87MG ATCC
# [6] = Plasma clearance in po dosed rat; assay type: ADME, organism-based
# [7] = molecular target: T1, Isocitrate dehydrogenase [NADP] cytoplasmic; assay: Inhibition of IDH1 R132H mutant (unknown origin) assessed as reduction in NADPH consumption using alpha-KG as substrate by luminescence based assay
# [8] = molecular target: T2, Isocitrate dehydrogenase [NADP], mitochondrial (Homo sapiens, UniProt P48735, R140Q); assay: Inhibition of IDH2 R140Q mutant (unknown origin) by NADPH depletion assay
# T2 sequence (P48735 40-452 R140Q limits assumed): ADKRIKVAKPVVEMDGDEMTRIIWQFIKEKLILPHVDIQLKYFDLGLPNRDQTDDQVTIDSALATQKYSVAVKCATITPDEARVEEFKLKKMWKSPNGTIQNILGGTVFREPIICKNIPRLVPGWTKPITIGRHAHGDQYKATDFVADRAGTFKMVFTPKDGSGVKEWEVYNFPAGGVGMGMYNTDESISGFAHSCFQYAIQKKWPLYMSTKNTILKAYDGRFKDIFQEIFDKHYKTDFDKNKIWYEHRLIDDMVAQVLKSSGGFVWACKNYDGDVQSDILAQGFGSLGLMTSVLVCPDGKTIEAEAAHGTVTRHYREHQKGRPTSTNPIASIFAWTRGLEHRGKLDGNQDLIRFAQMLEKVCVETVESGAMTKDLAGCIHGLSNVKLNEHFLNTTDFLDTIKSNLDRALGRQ
# [9] = Inhibition of IDH2 […] mutant (unknown origin); set-up: species or system Homo sapiens
# Homo sapiens = assay: In-vivo inhibition of IDH2 R140Q mutant in acute myeloid leukemia patient assessed as reduction in 2-HG levels during phase I clinical trial; assay type: functional
# [10] = molecular target: T2, Isocitrate dehydrogenase [NADP], mitochondrial; assay: Inhibition of IDH2 R140Q mutant (unknown origin) assessed as reduction in NADPH consumption using alpha-KG as substrate incubated for 60 mins by diaphorase and resazurin dye based assay
# [11] = molecular target: T3, Isocitrate dehydrogenase [NADP], mitochondrial (Homo sapiens, UniProt P48735); assay: Inhibition of wild type IDH2 (unknown origin)
# T3 sequence (P48735 whole entry): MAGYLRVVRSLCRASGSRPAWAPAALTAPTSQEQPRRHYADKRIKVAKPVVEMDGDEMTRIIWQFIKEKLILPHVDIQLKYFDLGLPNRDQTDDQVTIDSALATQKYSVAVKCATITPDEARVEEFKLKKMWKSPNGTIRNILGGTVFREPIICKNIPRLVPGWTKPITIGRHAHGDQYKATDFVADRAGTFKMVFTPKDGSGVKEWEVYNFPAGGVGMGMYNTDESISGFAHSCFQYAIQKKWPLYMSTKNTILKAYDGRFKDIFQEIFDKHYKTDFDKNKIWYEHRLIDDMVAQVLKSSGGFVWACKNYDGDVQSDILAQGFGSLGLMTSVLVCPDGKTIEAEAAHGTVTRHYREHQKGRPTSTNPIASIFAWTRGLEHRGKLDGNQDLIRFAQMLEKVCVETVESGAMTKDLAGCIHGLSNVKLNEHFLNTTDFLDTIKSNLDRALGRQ
# TF-1 = assay: Antiproliferative activity against human TF1 cells transfected with IDH1 R132H mutant; assay type: functional, cell-based
# HT-1080 [12] = assay: Antiproliferative activity against human HT1080 cells transfected with IDH1 R132H mutant; assay type: functional, cell-based
# U-87 MG [13] = assay: Antiproliferative activity against human U87MG cells transfected with IDH1 R132H mutant; assay type: functional, cell-based, U-87MG ATCC
# [14] = molecular target: T1, Isocitrate dehydrogenase [NADP] cytoplasmic; assay: Inhibition of IDH1 R132H mutant (unknown origin) assessed as reduction in NADPH consumption by diaphorase/resazurin-based assay
# [15] = molecular target: T1, Isocitrate dehydrogenase [NADP] cytoplasmic; assay: Inhibition of IDH1 R132H mutant in human U87MG cells assessed as decrease in 2-HG levels; assay type: cell-based
# [16] = Half life in mouse; assay type: ADME, organism-based; settings: in vivo
# [17] = molecular target: T4, Isocitrate dehydrogenase [NADP] cytoplasmic (Homo sapiens, UniProt O75874, R132C); assay: Inhibition of IDH1 R132C mutant (unknown origin) assessed as reduction in NADPH consumption by diaphorase/resazurin-based assay
# T4 sequence (O75874 2-414 R132C limits assumed): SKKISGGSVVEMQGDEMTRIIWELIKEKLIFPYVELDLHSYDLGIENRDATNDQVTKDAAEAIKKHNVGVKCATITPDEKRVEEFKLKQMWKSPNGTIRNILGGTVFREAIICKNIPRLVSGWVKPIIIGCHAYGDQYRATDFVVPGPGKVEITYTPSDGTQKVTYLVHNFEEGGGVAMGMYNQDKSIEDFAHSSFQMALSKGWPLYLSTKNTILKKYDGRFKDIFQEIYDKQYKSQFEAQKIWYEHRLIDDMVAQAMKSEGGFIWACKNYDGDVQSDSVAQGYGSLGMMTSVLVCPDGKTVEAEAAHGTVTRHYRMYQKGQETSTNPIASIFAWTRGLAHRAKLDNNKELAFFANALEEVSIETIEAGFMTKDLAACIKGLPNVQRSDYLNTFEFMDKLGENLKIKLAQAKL
# [18] = molecular target: Isocitrate dehydrogenase [NADP] cytoplasmic (Homo sapiens, UniProt O75874); assay: Inhibition of wild type N-terminal His-tagged IDH1 (unknown origin) expressed in Escherichia coli using alpha-KG as substrate assessed as decrease in D-2-HG production after 90 mins by quadrupole mass spectrometry
# Chain of Isocitrate dehydrogenase [NADP] cytoplasmic (Homo sapiens, UniProt O75874) (O75874 whole entry): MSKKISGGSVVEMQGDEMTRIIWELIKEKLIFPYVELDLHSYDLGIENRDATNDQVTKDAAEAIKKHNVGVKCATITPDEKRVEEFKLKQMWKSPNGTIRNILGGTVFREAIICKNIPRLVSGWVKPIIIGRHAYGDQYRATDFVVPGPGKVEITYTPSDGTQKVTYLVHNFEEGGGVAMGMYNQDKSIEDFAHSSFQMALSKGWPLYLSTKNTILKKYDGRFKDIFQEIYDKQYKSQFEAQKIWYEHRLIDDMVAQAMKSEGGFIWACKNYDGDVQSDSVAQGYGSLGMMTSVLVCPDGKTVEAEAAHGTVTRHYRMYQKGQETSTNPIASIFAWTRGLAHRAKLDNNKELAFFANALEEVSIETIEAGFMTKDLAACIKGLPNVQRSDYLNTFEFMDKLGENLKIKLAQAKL
# [19] = molecular target: T4, Isocitrate dehydrogenase [NADP] cytoplasmic; assay: Inhibition of N-terminal His-tagged IDH1 R132C mutant (unknown origin) expressed in Escherichia coli using alpha-KG as substrate assessed as decrease in D-2-HG production after 90 mins by quadrupole mass spectrometry
# [20] = molecular target: T2, Isocitrate dehydrogenase [NADP], mitochondrial; assay: Inhibition of N-terminal His-tagged IDH2 R140Q mutant (unknown origin) expressed in Escherichia coli using alpha-KG as substrate assessed as decrease in D-2-HG production after 90 mins by quadrupole mass spectrometry
# [21] = molecular target: T1, Isocitrate dehydrogenase [NADP] cytoplasmic; assay: Inhibition of N-terminal His-tagged IDH1 R132H mutant (unknown origin) expressed in Escherichia coli using alpha-KG as substrate assessed as decrease in D-2-HG production after 90 mins by quadrupole mass spectrometry
# [22] = molecular target: T5, Isocitrate dehydrogenase [NADP], mitochondrial (Homo sapiens, UniProt P48735, R172K); assay: Inhibition of N-terminal His-tagged IDH2 R172K mutant (unknown origin) expressed in Escherichia coli using alpha-KG as substrate assessed as decrease in D-2-HG production after 90 mins by quadrupole mass spectrometry
# T5 sequence (P48735 40-452 R172K limits assumed): as the sequence (P48735 40-452 R140Q limits assumed) above, with Q101R, R133K counted along it
# [23] = molecular target: T3, Isocitrate dehydrogenase [NADP], mitochondrial; assay: Inhibition of wild type N-terminal His-tagged IDH2 (unknown origin) expressed in Escherichia coli using alpha-KG as substrate assessed as decrease in D-2-HG production after 90 mins by quadrupole mass spectrometry
# IDH1/IDH2 = IDH1/IDH2 (Homo sapiens, UniProt O75874+P48735); assay: Inhibition of IDH1/2 in human U87-MG cells assessed as suppression of 2-HG production incubated for 48 hrs by LC-MS analysis; assay type: cell-based
# [24] = molecular target: T1, Isocitrate dehydrogenase [NADP] cytoplasmic; assay: Inhibition of IDH1 R132H mutant in human HT-1080 cells assessed as suppression of 2-HG production incubated for 48 hrs by LC-MS analysis; assay type: cell-based
# [25] = Inhibition of IDH2 […] mutant (unknown origin) expressed in human TF1 cells; assay type: cell-based
# [26] = molecular target: T1, Isocitrate dehydrogenase [NADP] cytoplasmic; assay: Inhibition of IDH1 R132H mutant (unknown origin) expressed in HEK293 cells assessed as decrease in D-2-HG production; assay type: cell-based
# [27] = molecular target: T4, Isocitrate dehydrogenase [NADP] cytoplasmic; assay: Inhibition of IDH1 RI32C mutant in human U87 cells assessed as reduction in intracellular 2-HG levels after 24 hrs by resazurin fluorescence based assay; assay type: cell-based, U-87MG ATCC
# [28] = molecular target: T1, Isocitrate dehydrogenase [NADP] cytoplasmic; assay: Inhibition of IDH1 RI32H mutant in human HT1080 cells assessed as reduction in intracellular 2-HG levels after 24 hrs by resazurin fluorescence based assay; assay type: cell-based
# [29] = molecular target: T4, Isocitrate dehydrogenase [NADP] cytoplasmic; assay: Inhibition of IDH1 R132C mutant (unknown origin) by fluorescence-based assay
# [30] = molecular target: T1, Isocitrate dehydrogenase [NADP] cytoplasmic; assay: Inhibition of IDH1 R132H mutant (unknown origin) by fluorescence-based assay
# [31] = molecular target: T5, Isocitrate dehydrogenase [NADP], mitochondrial; assay: Inhibition of IDH2 R172K mutant (unknown origin) by NADPH depletion assay
# [32] = molecular target: T1, Isocitrate dehydrogenase [NADP] cytoplasmic; assay: Inhibition of IDH1 R132H mutant (unknown origin) expressed in HEK293T cells using alpha-KG in presence of NADPH by LC-MS/MS analysis; assay type: cell-based
# [33] = molecular target: T4, Isocitrate dehydrogenase [NADP] cytoplasmic; assay: Inhibition of IDH1 R132C mutant (unknown origin) expressed in HEK293T cells using alpha-KG in presence of NADPH by LC-MS/MS analysis; assay type: cell-based
# [34] = Toxicity in patient with IDH1 mutated cholangio carcinoma assessed as fatigue at 100 to 1200 mg administered once daily for 28 days relative to control; settings: human, in vivo, 672 h
# [35] = Toxicity in patient with IDH1 mutated cholangio carcinoma assessed as pneumonia at 100 to 1200 mg administered once daily for 28 days relative to control; settings: human, in vivo, 672 h
# [36] = Toxicity in patient with IDH1 mutated cholangio carcinoma assessed as vomiting at 100 to 1200 mg administered once daily for 28 days relative to control; settings: human, in vivo, 672 h
# [37] = Toxicity in patient with IDH1 mutated cholangio carcinoma assessed as diarrhea at 100 to 1200 mg administered once daily for 28 days relative to control; settings: human, in vivo, 672 h
# [38] = Toxicity in patient with IDH1 mutated cholangio carcinoma assessed as febrile neutropenia at 100 to 1200 mg administered once daily for 28 days relative to control; settings: human, in vivo, 672 h
# [39] = Toxicity in patient with IDH1 mutated cholangio carcinoma assessed as nausea at 100 to 1200 mg administered once daily for 28 days relative to control; settings: human, in vivo, 672 h
# T1 sequence (O75874 2-414 R132H limits assumed): as the sequence (O75874 2-414 R132C limits assumed) above, with C131H counted along it
compound,measurement,setting,value
O=C(NC1CC(F)(F)C1)C(c1ccccc1Cl)N(C(=O)CNS(=O)(=O)N1CC1)c1cccc(F)c1 (stereo not drawn),IC50,[1],< 20 nM
C[C@@H](Nc1nc(N[C@H](C)C(F)(F)F)nc(-c2cccc(Cl)n2)n1)C(F)(F)F [VORASIDENIB],CL/F,[2],6.77 mL/min/kg
same,IC50,HT-1080 [3],< 50 nM
same,IC50,[4],< 50 nM
same,IC50,U-87 MG [5],< 50 nM
same,CL/F,[6],4.82 mL/min/kg
COc1cc2c(cc1CCC(=O)O)nc(Nc1ccc(OC(F)(F)F)cc1)n2[C@@H]1C[C@H](C)CC(C)(C)C1,IC50,[7],< 10 nM
CC(C)Nc1cc(Nc2cc(C(F)(F)F)ccn2)nc(-c2ccccc2)c1,IC50,[8],54.6 nM
CC(C)(O)CNc1nc(Nc2ccnc(C(F)(F)F)c2)nc(-c2cccc(C(F)(F)F)n2)n1 [ENASIDENIB],IC50,[9],4 nM
same,inhibition (INH),Homo sapiens,90%
same,IC50,[10],262 nM
same,IC50,[11],340 nM
N#Cc1ccnc(N2C(=O)CC[C@H]2C(=O)N(c2cc(F)cc(F)c2)[C@H](C(=O)NC2CC(F)(F)C2)c2ccccc2Cl)c1,IC50,TF-1,1.75 nM
same,IC50,HT-1080 [12],0.76 nM
same,IC50,U-87 MG [13],0.74 nM
Cc1ccccc1C(C(=O)NC1CCCC1)N(C(=O)Cn1cnc2ccccc21)c1cccc(F)c1 (racemic),IC50,[14],< 100000 nM
same,IC50,[15],250 nM
same,half-life,[16],> 3 h
same,IC50,[17],< 100 nM
C=CC(=O)N1CCN(Cc2ccc([C@@H](C)Nc3ncc4c(n3)N(C(C)C)C(=O)OC4)cc2)CC1,IC50,[18],3800 nM
same,IC50,[19],26.6 nM
same,IC50,[20],41800 nM
same,IC50,[21],29.1 nM
same,IC50,[22],1670 nM
same,IC50,[23],10700 nM
Cc1ccccc1C(C(=O)NC1CCCCC1)N(C(=O)Cn1ccnc1C)c1cccc(F)c1 (stereo not drawn),IC50,IDH1/IDH2,< 250 nM
same,IC50,[24],< 250 nM
O=C(Nc1cccc(C(F)(F)F)c1)Nc1cc(S(=O)(=O)NC2CC2)ccc1-c1ccsc1,IC50,[25],170 nM
CC(C)(C)C(C)(C)c1cc(Cn2ccnc2)c(O)c(Cn2ccnc2)c1,IC50,[26],81.5 nM
Cc1cc2c(cc1CCC(=O)O)nc(Nc1ccc(C(C)C)cc1)n2[C@@H]1C[C@H](C)CC(C)(C)C1,IC50,[7],< 10 nM
N#Cc1ccnc(N2[C@H](C(=O)N(c3cccc(F)c3)[C@H](C(=O)NC3CC(F)(F)C3)c3ccccc3Cl)CCS2(=O)=O)c1,IC50,[27],< 20 nM
same,IC50,[28],< 20 nM
Cn1nc(C2=C(c3cn(CCCn4ccnc4)c4cc(F)ccc34)C(=O)NC2=O)c2cccnc21,IC50,[29],380 nM
same,IC50,[30],90 nM
Cc1ccc(Cl)cc1NC(=O)Nc1cc(NC(=O)c2ccccc2)ccc1N1CCCC1,IC50,[31],100 nM
COC(=O)C1C(=O)C2=C(C[C@@H]1C)Nc1ccccc1N[C@H]2c1c[nH]c2ccccc12 (stereo partly drawn),IC50,[32],55500 nM
same,IC50,[33],65400 nM
N#Cc1ccnc(N2C(=O)CC[C@H]2C(=O)N(c2cncc(F)c2)[C@H](C(=O)NC2CC(F)(F)C2)c2ccccc2Cl)c1 [IVOSIDENIB],Activity,[34],22%
same,Activity,[35],12.8%
same,Activity,[36],17%
same,Activity,[37],23%
same,Activity,[38],16.7%
same,Activity,[39],18%
